This assay addresses PDE10A (UniProt Q9Y233). Nature of the assay: PDE10 enzyme inhibition, IMAP TR-FRET assay (Example A, MPDE10A7 Enzyme Activity and Inhibition). The format is biochemical. The note with it: approximate IC50 value, Table 10. The method, then: Enzyme Activity. An IMAP TR-FRET assay was used to analyze the enzyme activity (Molecular Devices Corp., Sunnyvale Calif.). 10 μL of serial diluted PDE10A (BPS Bioscience, San Diego, Calif.) or tissue homogenate was incubated with equal volumes of diluted fluorescein labeled cAMP or cGMP for 90 min in 384-well Polypropylene assay plates (Greiner, Monroe, N.C.) at room temperature. After incubation, the reaction was stopped by adding 55 μL of diluted binding reagents and was incubated for 4 hours to overnight at room temperature. The plates were read on an Envision (Perkin Elmer, Waltham, Mass.) for time resolved fluorescence resonance energy transfer. The data were analyzed with Genedata Screener® (Lexington, Mass.).
Enzyme Inhibition. To check the inhibition profile, 0.2 μL of serial diluted compounds were incubated with 10 μL of diluted PDE10 enzyme (BPS Bioscience, San Diego, Calif.) or tissue homogenate in a 384-well Polypropylene assay plate (Greiner, Monroe, N.C.) for 60 min at room temperature. After incubation, 10 μL of diluted fluorescein labeled cAMP or cGMP substrate were added and incubated for 90 min at room temperature. The reaction was stopped by adding 55 μL of diluted binding reagents and plates were read on an Envision (Perkin Elmer, Waltham, Mass.) for time resolved fluorescence resonance energy transfer. The data were analyzed with Genedata Screener® (Lexington, Mass.).
IC50 curves were generated from the raw data collected from the […] and fitted with a four-parameter logistic equation using in-house data analysis tool, Activity Base.

Several values for one entry are separate records, joined by “and”; a condition that tells them apart may be missing. Equal values may be shown once.

Data on 33 compounds can be found in US9174992B2, “Heterobicyclic compounds” (Amgen Inc., priority 2012, dated 2015).

The term IC50 denotes the concentration needed to halve the response being measured. Lower therefore signals greater potency in that assay. `CC1(C)C(=O)N([C@H]2C[C@H](Nc3ncc(Cl)cn3)C2)c2ncccc21` [Example 61, 1-(trans-3-((5-chloropyrimidin-2-yl)amino)cyclobutyl)-3,3-dimethyl-1H-pyrrolo[2,3-b]pyridin-2(3H)-one] had an IC50 of 30.4 nM.

`Cc1ccnc(N[C@H]2C[C@H](N3C(=O)C(C)(C)c4cccnc43)C2)n1` [Example 63, 1-(trans-3-((4-methylpyrimidin-2-yl)amino)cyclobutyl)-3,3-dimethyl-1H-pyrrolo[2,3-b]pyridin-2(3H)-one] had an IC50 of 38.6 nM.

As to `CC1(C)C(=O)N([C@H]2C[C@H](Nc3nccc(Cl)n3)C2)c2ncccc21` [Example 64, 1-(trans-3-((4-chloropyrimidin-2-yl)amino)cyclobutyl)-3,3-dimethyl-1H-pyrrolo[2,3-b]pyridin-2(3H)-one], the IC50 was determined as 43.3 nM.

For `CC1(C)C(=O)N([C@H]2C[C@H](Nc3cnccn3)C2)c2ncccc21` [Example 65, 3,3-Dimethyl-1-(trans-3-(pyrazin-2-ylamino)cyclobutyl)-1H-pyrrolo[2,3-b]pyridine-2(3H)-one], the IC50 worked out at 44.8 nM.

`CC1(C)C(=O)N([C@H]2C[C@H](Nc3cccc(Cl)n3)C2)c2ncccc21` [Example 66, 1-(trans-3-((6-chloropyridin-2-yl)amino)cyclobutyl)-3,3-dimethyl-1H-pyrrolo[2,3-b]pyridin-2(3H)-one] registered an IC50 of 51.1 nM.

For `CC1(C)C(=O)N([C@H]2C[C@H](Nc3nccc(C(F)(F)F)n3)C2)c2ncccc21` [Example 67], the IC50 is 35.6 nM and 59 nM.

For the compound `CC1(C)C(=O)N([C@H]2C[C@H](Nc3cccnn3)C2)c2ncccc21` [Example 68, 3,3-Dimethyl-1-(trans-3-(pyridazin-3-ylamino)cyclobutyl)-1H-pyrrolo[2,3-b]pyridine-2(3H)-one], the IC50 is 158 nM. This counts as sub-micromolar.

Regarding `CC1(C)C(=O)N([C@H]2C[C@H](Nc3nc(-c4ccccc4)cs3)C2)c2ncccc21` [Example 69, 3,3-Dimethyl-1-(trans-3-((4-phenylthiazol-2-yl)amino)cyclobutyl)-1H-pyrrolo[2,3-b]pyridine-2(3H)-one], the IC50 was 167 nM.

As for `CC1(C)C(=O)N([C@H]2C[C@H](Nc3ncc(C(F)(F)F)cn3)C2)c2ncccc21` [Example 70, 1-(trans-3-((5-(trifluoromethyl)pyrimidin-2-yl)amino)cyclobutyl)-3,3-dimethyl-1H-pyrrolo[2,3-b]pyridin-2(3H)-one], the IC50 was found to be 180 nM.

In turn, `CC1(C)C(=O)N([C@H]2C[C@H](Nc3ncc(F)cn3)C2)c2ncccc21` [Example 71, 1-(trans-3-((5-fluoropyrimidin-2-yl)amino)cyclobutyl)-3,3-dimethyl-1H-pyrrolo[2,3-b]pyridin-2(3H)-one] displayed an IC50 of 244 nM.

Regarding `CC1(C)C(=O)N([C@H]2C[C@H](Nc3ccnc(Cl)n3)C2)c2ncccc21` [Example 72, 1-(trans-3-((2-cholropyrimidin-4-yl)amino)cyclobutyl)-3,3-dimethyl-1H-pyrrolo[2,3-b]pyridin-2(3H)-one], the IC50 was found to be 352 nM.

In turn, `Cc1ccc(N[C@H]2CC[C@H](N3C(=O)C(C)(C)c4nccnc43)CC2)nc1` [Example 73, 7,7-dimethyl-5-(trans-4-((5-methylpyridin-2-yl)amino)cyclohexyl)-5H-pyrrolo[2,3-b]pyrazin-6(7H)-one] yielded an IC50 of 1.54 nM. This IC50 is about 230-fold lower than that of the compound before.

Consider `COc1ccc(N[C@H]2C[C@H](N3C(=O)C(C)(C)c4nccnc43)C2)nc1` [Example 74], for which the IC50 came out at 2.88 nM.

For the compound `Cc1ccc(N[C@H]2CC[C@H](N3C(=O)C(C)(C)c4nccnc43)CC2)nc1` [Example 75, 7,7-Dimethyl-5-(trans-4-((5-methylpyridin-2-yl)amino)cyclohexyl)-5H-pyrrolo[2,3-b]pyrazin-6(7H)-one], inhibition was half-maximal at 5.02 nM (IC50). This IC50 is about 1.7-fold higher than that of the compound before.

`CC1(C)C(=O)N([C@H]2C[C@H](Nc3ccc(F)cn3)C2)c2nccnc21` [Example 76, 5-(trans-3-((5-fluoropyridin-2-yl)amino)cyclobutyl)-7,7-dimethyl-5H-pyrrolo[2,3-b]pyrazin-6(7H)-one] gave an IC50 of 51.1 nM.

The compound `Cc1ccc(N[C@H]2CC[C@H](N3C(=O)C(C)(C)c4cccnc43)CC2)nc1` [Example 77, 3,3-Dimethyl-1-(trans-4-((5-methylpyridin-2-yl)amino)cyclohexyl)-1H-pyrrolo[2,3-b]pyridin-2(3H)-one] registered an IC50 of 1.29 nM.

`CC1(C)C(=O)N([C@H]2C[C@H](Nc3ccc(C4CC4)cn3)C2)c2nccnc21` [Example 78, 5-(trans-3-((5-cyclopropylpyridin-2-yl)amino)cyclobutyl)-7,7-dimethyl-5H-pyrrolo[2,3-b]pyrazin-6(7H)-one] gave an IC50 of 4.2 nM.

`CC1(C)C(=O)N([C@H]2C[C@H](Nc3ncc(C4CC4)cn3)C2)c2ncccc21` [Example 79, 1-(trans-3-((5-cyclopropylpyrimidin-2-yl)amino)cyclobutyl)-3,3-dimethyl-1H-pyrrolo[2,3-b]pyridin-2(3H)-one] had an IC50 of 6.15 nM. The IC50 values of the last two compounds are within 1.5-fold of each other.

As for `C=C(C)c1cnc(NC2CC(N3C(=O)C(C)(C)c4cccnc43)C2)nc1` (stereo not drawn) [Example 80, 3,3-dimethyl-1-(−3-((5-(prop-1-en-2-yl)pyrimidin-2-yl)amino)cyclobutyl)-1H-pyrrolo[2,3-b]pyridin-2(3H)-one], the IC50 is 1.43 nM.

As for `CC1(C)C(=O)N([C@H]2C[C@@H](Nc3nc4ccccc4s3)C2)c2ncccc21` [Example 81, 1-(Cis-3-(benzo[d]thiazol-2-ylamino)cyclobutyl)-3,3-dimethyl-1H-pyrrolo[2,3-b]pyridin-2(3H)-one], the IC50 came to 1.26 nM.

Turning to `CC(C)c1cnc(N[C@H]2C[C@H](N3C(=O)C(C)(C)c4cccnc43)C2)nc1` [Example 82, 1-(trans-3-((5-isopropylpyrimidin-2-yl)amino)cyclobutyl)-3,3-dimethyl-1H-pyrrolo[2,3-b]pyridin-2(3H)-one], it took 2.83 nM to reach half-maximal inhibition (IC50).

`COc1cnc(N[C@H]2C[C@H](N3C(=O)C(C)(C)c4cccnc43)C2)nc1` [Example 83, 1-(trans-3-((5-methoxypyrimidin-2-yl)amino)cyclobutyl)-3,3-dimethyl-1H-pyrrolo[2,3-b]pyridin-2(3H)-one]: the IC50 was found to be 7.72 nM.

On to `CC(=O)c1ccc(N[C@H]2C[C@H](N3C(=O)C(C)(C)c4nccnc43)C2)nc1` [Example 84, 5-(trans-3-((5-acetylpyridin-2-yl)amino)cyclobutyl)-7,7-dimethyl-5H-pyrrolo[2,3-b]pyrazin-6(7H)-one], for which the IC50 amounted to 23.1 nM.

As for `O=c1n(C2CC2)c2cccnc2n1[C@H]1C[C@H](Nc2nc3ccccc3s2)C1` [Example 85, 3-(trans-3-(benzo[d]thiazol-2-ylamino)cyclobutyl)-1-cyclopropyl-1H-imidazo[4,5-b]pyridin-2(3H)-one], the IC50 was found to be 0.0254 nM.

Compound `Cn1c(=O)n([C@H]2C[C@H](Nc3nc4ccccc4s3)C2)c2ncc(F)cc21` [Example 86, 3-(trans-3-(benzo[d]thiazol-2-ylamino)cyclobutyl)-6-fluoro-1-methyl-1H-imidazo[4,5-b]pyridin-2(3H)-one] came in with an IC50 of 0.0655 nM.

In turn, `O=c1n(C2CC2)c2cc(F)cnc2n1[C@H]1C[C@H](Nc2nc3ccccc3s2)C1` [Example 87, 3-(trans-3-(benzo[d]thiazol-2-ylamino)cyclobutyl)-6-fluoro-1-cyclopropyl-1H-imidazo[4,5-b]pyridin-2(3H)-one] gave an IC50 of 0.0794 nM.

Compound `Cn1c(=O)n([C@H]2C[C@H](Nc3nc4ccccc4s3)C2)c2ncccc21` [Example 88, 3-(trans-3-(benzo[d]thiazol-2-ylamino)cyclobutyl)-1-methyl-1H-imidazo[4,5-b]pyridin-2(3H)-one] returned an IC50 of 0.0911 nM.

Turning to `O=c1n(C2CCCC2)c2cccnc2n1[C@H]1C[C@H](Nc2nc3ccccc3s2)C1` [Example 89, 3-(trans-3-(benzo[d]thiazol-2-ylamino)cyclobutyl)-1-cyclopentyl-1H-imidazo[4,5-b]pyridin-2(3H)-one], the IC50 turned out to be 0.131 nM.

Compound `O=c1n(C2CC2)c2nccnc2n1[C@H]1C[C@H](Nc2nc3ccccc3s2)C1` [Example 90, 1-(trans-3-(benzo[d]thiazol-2-ylamino)cyclobutyl)-3-cyclopropyl-1H-imidazo[4,5-b]pyrazin-2(3H)-one] came in with an IC50 of 0.388 nM.

In turn, `O=c1n(C2CC2)c2cncnc2n1[C@H]1C[C@H](Nc2nc3ccccc3s2)C1` [Example 91, 9-(trans-3-(benzo[d]thiazol-2-ylamino)cyclobutyl)-7-cyclopropyl-7H-purin-8(9H)-one] displayed an IC50 of 0.469 nM.

In turn, `O=c1[nH]c2cccnc2n1[C@H]1C[C@H](Nc2nc3ccc(F)cc3s2)C1` [Example 92, 3-(trans-3-((6-fluorobenzo[d]thiazol-2-yl)amino)cyclobutyl)-1H-imidazo[4,5-b]pyridin-2(3H)-one] came in with an IC50 of 0.664 nM.

`Cn1c(=O)n([C@H]2C[C@H](Nc3nc4ccccc4s3)C2)c2ncncc21` [Example 93, 9-(trans-3-(benzo[d]thiazol-2-ylamino)cyclobutyl)-7-methyl-7H-purin-8(9H)-one] had an IC50 of 0.878 nM.

`O=c1[nH]c2cccnc2n1[C@H]1C[C@H](Nc2nc3ccccc3s2)C1` [Example 94, 3-(trans-3-(benzo[d]thiazol-2-ylamino)cyclobutyl)-1H-imidazo[4,5-b]pyridin-2(3H)-one] gave an IC50 of 0.91 nM.
